In paper PMC8955938, “c-Myc Protein Level Affected by Unsymmetrical Bisacridines Influences Apoptosis and Senescence Induced in HCT116 Colorectal and H460 Lung Cancer Cells” (International Journal of Molecular Sciences, 2022):
“And” between values parts separate entries of the source, which are not always exact repeats. Identical values can stand only once.

Columns and labels:
Type in all cases: cell-based, human
[1] = system: KRAS gene expression in H460 cells; experiment: RT-PCR KRAS expression in H460; conditions: H460, IC90 doses, with time of incubation up to 120 h
Protocol: HCT116, H460, CCD 841 CoN and MRC-5 cells after treatment with UAs were collected, washed twice with ice-cold PBS and resuspended in […] of PBS. mRNA was isolated using High Pure RNA Isolation Kit according to the manufacturer’s instructions (Roche, Basel, Switzerland). Briefly, cells were lysed in lysis-binding buffer and transferred to a filter tube. Contaminating DNA was removed by 15 min incubation of the filter tube with DNase I solution. The filter tube was washed once with buffer I and twice with buffer II, and after centrifugation, total RNA was eluted using the elution buffer. RNA concentration was determined by NanoDrop One (Thermo Scientific); 1 µg of RNA was reverse transcribed using Transcriptor First Strand cDNA Synthesis Kit according to the manufacturer’s instructions (Roche) in 20 µL of reaction containing 1 µg of RNA, […] anchored-oligo(dT)18Primer, 8 mM MgCl2, 20 U of Protector RNase Inhibitor, deoxynucleotide mix (1 mM each) and 22 U of Transcriptor Reverse Transcriptase. The reverse transcription reaction was carried out for 30 min at 55 °C and stopped by heating to 85 °C for 5 min and placing on ice. The cDNA solution was stored at −20 °C until use. Real-time polymerase chain reaction (PCR) was performed on 2 µL of cDNA using 0.2 µM forward and reverse primers on LightCycler® 480 using LightCycler® 480 SYBR Green I Master according to manufacturer’s instructions (Roche). Primers were designed using BLAST website. Their efficiency was checked, and they were ordered from Genomed (Warsaw, Poland). The sequences of primers were as follows: MYC set 1 forward primer, […]; MYC set 1 reverse primer, […]; MYC set 2 forward primer, […]; MYC set 2 reverse primer, […]; KRAS forward primer, […]; KRAS reverse primer, […]; reference gene, GAPDH forward primer ACCCACTCCTCCACCTTTG; and GAPDH reverse primer, CTCTTGTGCTCTTGCTGGG. Cycling conditions were as follows: 1 cycle for 7 min at 95 °C (preincubation), 45 cycles of amplification: 10 s at 95 °C (denaturation), 20 s at 62 °C (annealing), 30 s at 72 °C (extension), 1 cycle for obtaining melting curve and 1 cycle for 10 s at 40 °C (cooling). The results were standardized to the reference gene GADPH. The relative expression level of MYC and KRAS was quantified using comparative method […]. The results were obtained from three independent experiments, each of which was analyzed at least twice.

HCT116 cells [2] = experiment: MTT cell growth inhibition assay, HCT116; conditions: HCT116, 72 h
Protocol: To assess cell viability, the MTT assay was used. HCT116, H460, CCD 841 CoN and MRC-5 cells (20,000/well and 50,000/well for cancer and normal cells, respectively) were seeded in 24-well plates, and the following UAs were added at concentrations up to 10 μM: C-2028, C-2041, C-2045 and C-2053. Stock solutions (10 mM) were prepared in sterile water, as well as dilutions, also in water. After 72 h, 3-(4, 5-dimethylthiazol-2-yl)-2,5-diphenyltetrazolium bromide (MTT; 800 μg/well) was added for 3 h, then the formazan crystals were dissolved in DMSO, and absorbance was read at 540 nm. Each point was conducted at least 4 times, and data are expressed relative to controls. The concentration of the drug required to inhibit cells growth by 50 (IC50), 80 (IC80) and 90% (IC90) compared to untreated control cells was determined from the curves plotting survival as a function of dose.

H460 cells [3] = experiment: Annexin V/PI dual staining, H460; conditions: H460, IC90 doses; for necrotic cells (stained only with PI): during the incubation time
Protocol: Annexin V–FITC binding was performed with an Annexin-V Fluos Staining kit (BD Biosciences, San Jose, CA, USA) according to manufacturer’s protocol. Briefly, after drug treatment, HCT116 and H460 cells (1 × 10^6) were trypsinized, washed twice with ice-cold PBS, pelleted and resuspended in 100 µL of binding buffer containing Annexin-V–FITC and PI. Cells were incubated for 15 min at room temperature in the dark, then diluted with 400 µL of binding buffer and analyzed by flow cytometry with FACS Accuri C6 (BD, San Jose, CA, USA). Cells with low FITC and PI fluorescence were considered viable. Cells that presented high FITC fluorescence but low PI fluorescence were regarded as early apoptotic. Late apoptotic cells presented high FITC and PI fluorescence. Necrotic cells had low FITC fluorescence and high PI fluorescence.

HCT116 cells [4] = experiment: Mitochondrial transmembrane potential (JC-1), HCT116; conditions: HCT116, IC90 doses, 120 h
Protocol: (§1) Changes in the mitochondrial membrane potential (ΔΨm) were analyzed by flow cytometry using 5,5′,6,6′-tetrachloro-1,1′,3,3′-tetraethylbenzimidazolyl-carbocyanine iodide, JC-1 (BD Biosciences, San Jose, CA, USA) according to manufacturer’s specification. Briefly, after treatment, HCT116 and H460 cells (1 × 10^6) were trypsinized, pelleted, resuspended in media and stained with JC-1 for 15 min at 37 °C. After staining, cells were washed twice with assay buffer and analyzed by flow cytometry with FACS Accuri C6 (BD, San Jose, CA, USA). The loss of ΔΨm was monitored based on the decrease in JC-1 red fluorescence concurrent with the increase in green fluorescence.

H460 cells [5] = experiment: Mitochondrial transmembrane potential (JC-1), H460; conditions: H460, IC90 doses, 120 h
Protocol: as §1

HCT116 cells [6] = experiment: Colony-forming assay, HCT116; conditions: for return to proliferation (colony formation): HCT116, IC90 doses, already after 24 h of incubation; for number of colonies: HCT116, 120 h treatment at IC90 doses, about 250 cells cultured two weeks in fresh medium
Protocol: The ability of cells to return to proliferation after UAs treatment was measured by a colony-forming assay. After drug treatment, 250 HCT116 and H460 cells were harvested and seeded in a new 6-well plate containing fresh medium without the drug and incubated for two weeks. Untreated cells were used as controls. After two weeks, colonies were fixed with 80% ethanol, stained with crystal violet, counted, and photos were taken.

H460 cells [7] = experiment: Nuclear morphology (Hoechst 33342), H460; conditions: H460, IC90 doses, 72 and 120 h similar level (time not specified)
Protocol: Nuclear morphology was examined under a fluorescence microscope (OLYMPUS BX60, […]) after staining with Hoechst 33342. Briefly, after drug treatment, HCT116, H460, CCD 841 CoN and MRC-5 cells were spun onto microscopic slides, fixed with methanol:acetic acid (3:1) for 15 min and stained with Hoechst 33342 (1 mg/mL) for 15 min. Cells were regarded as apoptotic based on the presence of condensed, fragmented chromatin. Enlarged cells containing multiple nuclei were considered as typical of mitotic catastrophe.

Row | IC50 (HCT116 cells [2]; Homo sapiens, HCT-116, 72 h) [nM] | IC90 (HCT116 cells [2]; Homo sapiens, HCT-116, 72 h) [nM] | IC50 (HCT116 cells [2]) [nM] | IC90 (HCT116 cells [2]) [nM] | SMILES | relative amount of KRAS mRNA [1] | annexin V positive cells (early and late apoptotic) (H460 cells [3]; 120 h) [%] | necrotic cells (A−PI+) (H460 cells [3]; 120 h) [%] | cells with decreased mitochondrial transmembrane potential (ΔΨm) (HCT116 cells [4]) | cells with decreased mitochondrial transmembrane potential (ΔΨm) (H460 cells [5]) [%] | return to proliferation (colony formation) (HCT116 cells [6]) | apoptotic cells (nuclear morphology) (H460 cells [7]) [%] | necrotic cells (stained only with PI) (H460 cells [3]) [%] | cells with decreased mitochondrial transmembrane potential (ΔΨm) (HCT116 cells [4]; listed as C-1041) [%] | number of colonies (HCT116 cells [6])
1 | 59 ± 8 | 455 ± 26 | – | – | Cc1ccc([N+](=O)[O-])c2c(NCCCN(C)CCCNc3ccc4ncn5c6ccc(O)cc6c(=O)c3c45)c3ccccc3nc12 [Compound C-2045] | around 1.5 | 49.4 | ~12 | 30.9% and 30% | 62.5 | completely blocked their return to proliferation | 41.8 | – | – | –
2 | ≤ 16 | ≤ 50 | 8 ± 2 | 49 ± 5 | O=c1c2ccccc2n2cnc3ccc(NCCCN4CCN(CCCNc5c6ccccc6nc6cccc([N+](=O)[O-])c56)CC4)c1c32 [Compound C-2041] | remained almost at the same level | 35.9 | – | around 70% | 46.8 | – | – | ≤ 10 | 63.0 | 7 colonies
3 | 48 ± 14 | 195 ± 75 | – | – | Cc1ccc([N+](=O)[O-])c2c(NCCCN(C)CCCNc3ccc4ncn5c6ccccc6c(=O)c3c45)c3ccccc3nc12 [Compound C-2053] | ~1.7 | 53.1 | – | 23.5% | 67.8 | completely blocked their return to proliferation | 41.6 | ≤ 10 | – | –
4 | ≤ 16 | ≤ 50 | 10 ± 1 | 44 ± 5 | CN(CCCNc1c2ccccc2nc2cccc([N+](=O)[O-])c12)CCCNc1ccc2ncn3c4ccccc4c(=O)c1c23 [Compound C-2028] | remained almost at the same level | 48.7 | – | 34.3% and 30% | 44.3 | – | 24.8 | ≤ 10 | – | one
